Data published in US7923578B2, “Method of manufacturing 3-(4-hydroxyphenyl)propanoic acid amide, its application in the manufacture of anti-aging compositions and anti-aging composition” (Instytut Chemii Bioorganicznej Pan, priority 2005, dated 2011).
“And” between values parts separate entries of the source, which are not always exact repeats. Equal entries are not always repeated.

Columns and labels:
[1] = tested on: human dermal fibroblasts (SNF25); experiment: Cell attachment of human skin fibroblasts; assay type: cell-based
Experimental: (§1) Test solution preparation: Stock solutions of 8 mM for the 3-p-hydroxyphenyl-propanoic acid amide were prepared by dissolving about 30 mg/ml in Hank's buffer to a final volume of 30 ml. In brief, the stock solutions were filter sterilized, stored at 4° C., and were used for experiments at their appropriate dilutions in cell culture media as required. Cell culture: All experiments were performed on mid- and late passage cultures of normal human adult skin fibroblast line, designated Senetek SNF25 (40-75% life span completed). In order to check the effects of test compounds on senescent cells, late passage cells with about 75% lifespan completed were used. SNF25 cell line was established from a mammary skin biopsy obtained from a young, non-smoking and healthy […] at the time of breast reduction operation. Normal culture conditions of medium (DMEM) containing antibiotics, 10% fetal calf serum, and incubation at 37° C., 5% CO2 with 95% humidity were used. The effects of the test chemicals were determined in the following conditions: Growth characteristics: Short-term growth experiments were performed using 24-well tissue culture plates (growth area 1.9 cm^2) and flat bottom 96 well plates (growth area 0.328 cm^2). Freshly prepared cell suspensions from mass cultures of SNF25 cells maintained in the lab were used. About 10,000 cells/well were seeded into 6 sets of 24-well plates. […] The numbers of cells were counted after different days of treatment in 2 wells from each concentration of the test chemical, by following the normal method of cell trypsinization and counting using a Coulter Counter. […] Cell survival, toxicity and JC-1 staining: Cell survival after exposure to various doses was measured with the 3-(4,5 dimethylthiazol-2-yl)-2,5-diphenyltetrazolium bromide (MTT) assay. […] The absorbance was measured at 595 nm. […] The cultures were visually examined after 72 hours, and the number of viable cells and/or the total cell protein content determined, after 72 hours exposure, by the Neutral Red Uptake method. […]

[2] = tested on: human skin fibroblasts (SNF25 p 23); experiment: Short-term growth (one step growth curve, Coulter counting, Giemsa morphology); assay type: cell-based
Experimental: (§2) Test solution preparation: Stock solutions of 8 mM for the 3-p-hydroxyphenyl-propanoic acid amide were prepared by dissolving about 30 mg/ml in Hank's buffer to a final volume of 30 ml. In brief, the stock solutions were filter sterilized, stored at 4° C., and were used for experiments at their appropriate dilutions in cell culture media as required. Cell culture: All experiments were performed on mid- and late passage cultures of normal human adult skin fibroblast line, designated Senetek SNF25 (40-75% life span completed). In order to check the effects of test compounds on senescent cells, late passage cells with about 75% lifespan completed were used. SNF25 cell line was established from a mammary skin biopsy obtained from a young, non-smoking and healthy […] at the time of breast reduction operation. Normal culture conditions of medium (DMEM) containing antibiotics, 10% fetal calf serum, and incubation at 37° C., 5% CO2 with 95% humidity were used. The effects of the test chemicals were determined in the following conditions: Growth characteristics: Short-term growth experiments were performed using 24-well tissue culture plates (growth area 1.9 cm^2) and flat bottom 96 well plates (growth area 0.328 cm^2). Freshly prepared cell suspensions from mass cultures of SNF25 cells maintained in the lab were used. About 10,000 cells/well were seeded into 6 sets of 24-well plates. The cells were either allowed to attach and stabilize for 24 hours in normal culture medium or were directly added to the culture medium of a final concentration (range 40 μM to 500 μM). Culture medium was changed with the addition of test chemicals weekly. The numbers of cells were counted after different days of treatment in 2 wells from each concentration of the test chemical, by following the normal method of cell trypsinization and counting using a Coulter Counter. The third well in each category was fixed with cold methanol and stained with Giemsa stain for permanent record and for photography. The experiment was carried on until the cultures became fully confluent and no further growth was possible. Cell survival, toxicity and JC-1 staining: Cell survival after exposure to various doses was measured with the 3-(4,5 dimethylthiazol-2-yl)-2,5-diphenyltetrazolium bromide (MTT) assay. About 5,000 cells were seeded per well in a 96-well plate for 24 hours before the experiment. Cells were then treated with various doses of the compound to be tested. The wells were washed in Hank's and new medium was added. After three days, MTT (Sigma, M2128) was added at 0.5 mg/ml in medium. After 4 h, MTT was removed and isopropanol and HCl were added to dissolve the MTT crystals for 12-16 h. The absorbance was measured at 595 nm. Lysosomal activity: Neutral Red is preferentially taken up into the lysosomes of the cell. Fibroblast cells were maintained in culture and exposed to test compounds over a range of concentrations. The cultures were visually examined after 72 hours, and the number of viable cells and/or the total cell protein content determined, after 72 hours exposure, by the Neutral Red Uptake method. Individual wells of a 96-well tissue culture microtiter plate were inoculated with 0.2 ml of the appropriate media containing cells (usually 3×10^3 cells). After 1 day of incubation, the media were removed and replaced with unamended (control) medium or with medium amended with varied concentrations of the compound to be tested. […]

[3] = tested on: middle aged dermal fibroblasts; experiment: Mitochondrial activity / cell survival (MTT assay); assay type: cell-based, human
Experimental: Test solution preparation: Stock solutions of 8 mM for the 3-p-hydroxyphenyl-propanoic acid amide were prepared by dissolving about 30 mg/ml in Hank's buffer to a final volume of 30 ml. In brief, the stock solutions were filter sterilized, stored at 4° C., and were used for experiments at their appropriate dilutions in cell culture media as required. Cell culture: All experiments were performed on mid- and late passage cultures of normal human adult skin fibroblast line, designated Senetek SNF25 (40-75% life span completed). In order to check the effects of test compounds on senescent cells, late passage cells with about 75% lifespan completed were used. […] The effects of the test chemicals were determined in the following conditions: Growth characteristics: Short-term growth experiments were performed using 24-well tissue culture plates (growth area 1.9 cm^2) and flat bottom 96 well plates (growth area 0.328 cm^2). […] The numbers of cells were counted after different days of treatment in 2 wells from each concentration of the test chemical, by following the normal method of cell trypsinization and counting using a Coulter Counter. […] Cell survival, toxicity and JC-1 staining: Cell survival after exposure to various doses was measured with the 3-(4,5 dimethylthiazol-2-yl)-2,5-diphenyltetrazolium bromide (MTT) assay. […] The absorbance was measured at 595 nm. […]

[4] = tested on: SNF25 p 44 cells; experiment: JC-1 staining of mitochondrial potential by fluorescence microscopy; assay type: cell-based, human; settings: pre-treatment for 3 days, all doses
Experimental: FIG. 3 presents the localization of JC-1 in SNF25 p44 cells using phloretamide by fluorescence microscopy.
Localization of JC-1 in SNF25 p 44 cells using phloretamide by fluorescence microscopy is shown on FIG. 3.
Staining for JC-1 was performed after phloretamide pre-treatment on dermal fibroblasts for a period of 3 days to see the mitochondrial potential.

[5] = tested on: Fibroblast cells (SF25 p29); experiment: Lysosomal activity (Neutral Red Uptake assay); assay type: cell-based, human
Experimental: as §2, with “After three days, MTT (Sigma, M2128) was added at 0.5 mg/ml in medium. After 4 h, MTT was removed and isopropanol and HCl were added to dissolve the MTT crystals for 12-16 h.” left out, “Lysosomal activity: Neutral Red is preferentially taken up into the lysosomes of the cell. Fibroblast cells were maintained in culture and exposed to test compounds over a range of concentrations.” left out, “method.” for “method. Individual wells of a 96-well tissue culture microtiter plate were inoculated with 0.2 ml of the appropriate media containing cells (usually 3×10^3 cells). After 1 day of incubation, the media were removed and replaced with unamended (control) medium or with medium amended with varied concentrations of the compound to be tested.”

[6] = tested on: Late passage human skin fibroblasts; experiment: Cytoskeletal organization and morphology of late passage cells; assay type: cell-based
Experimental: as §1

[7] = tested on: late passage cells; experiment: Cell survival of late passage (senescent) cells, Coulter counting; assay type: cell-based, human
Experimental: Effects on late passage cells—Cytoskeletal organization: Late passage cells with more than 75% lifespan were treated with different doses of phloretamide in order to see if this treatment could revert any of the age related changes. […] Effect of 3-p-hydroxyphenyl-propionic acid amide on the morphology of late passage cells after 7 and 14 days—Morphology of senescent cells: Late passage human skin fibroblasts (about 75% life span completed) were treated with various doses of phloretamide to see whether this treatment could reverse age-related alterations in their morphology. […] Heterogeneous behavior was not observed in the cells. […] Cell survival: Equal numbers of senescent cells were seeded in separate flasks and were treated with different concentrations of phloretamide. Cell numbers were determined by using a Coulter counter after trypsinization and resuspension of cells after 7 and 14 days of treatment.

[8] = tested on: fibroblasts; experiment: Induction of cell proliferation (DNA synthesis, BrdU incorporation); assay type: cell-based, human; settings: pre-treated fibroblasts

NC(=O)CCc1ccc(O)cc1 [phloretamide, 3-(4-hydroxyphenyl)propanoic acid amide]
percentage of cells attached to the surface of the culture flask ([1]; after six hours of treatment, 40 11 M to 2 mM): not affected to any significant extent | improved / enhanced cell attachment ([1]; at 40 μM and 80 μM): 20-30% and 10-20% | immediate toxicity to human dermal fibroblasts ([1]; six hours of treatment): not immediately toxic | inhibition at 500 µM ([2]; Homo sapiens, Skin fibroblast, 264 h, higher concentrations (500 μM), 11 days, read-out: inhibition of cellular growth): > 50% | increase in cell numbers ([2]; after 11 days of treatment, 40 μM to 200 μM): 10-20% | doses at which cytotoxicity of cells was seen ([2]; after 11 days of treatment, morphology): greater than 200 μM | stimulation of cell growth ([2]; at 40 μM and 80 μM, one step growth curve, up to 11 days): stimulation of cell growth | appearance (morphology) of cells ([2]; at higher doses, after 11 days of treatment (FIG. 2 E)): larger, irregularly arranged and sparse | effects on the activity of mitochondria ([3]; until a dose of 500 μM, 3 days, MTT): no negative effects | induction of cell growth ([3]; within the tested range of doses (0, 01 μM-500 μM)): no induction of cell growth | JC-1 staining (mitochondrial potential) [4]: polarized mitochondria | JC-1 staining (mitochondrial potential) ([4]; listed as 3-p-hydroxyphenyl-propionic acid amide): Punctate orange-red fluorescent staining was observed | staining pattern of the cells (lysosomal staining) ([5]; 40 μM and 80 μM, FIG. 4): showed autophagy | decrease in the lysosomal autophagy ([5]; dose range of 40 μM and 80 μM): 15-40% | lysosomal rate compared to the untreated ([5]; up to 200 μM, 72 hours exposure): decreased in a dose dependent manner | lysosomal activity ([5]; upwards of 40 μM): decrease in lysosomal activity was observed | improvement in the late passage cells ([6]; after 14 days of treatment): couldn't find an improvement | appearance (morphology) of late passage cells ([6]; after seven and fourteen days of treatment, about 75% life span completed): subtle differences | actin staining pattern, treated versus untreated cells ([6]; middle-aged cells after 3 days): no obvious differences | numbers of surviving late passage cells ([7]; after one and two weeks): almost similar without much difference | cell growth of late passage cells ([7]; at higher doses, after 7 and 14 of treatment): dose dependent reduction | DNA synthesis in comparison to the controls [8]: no significant differences
